Assay results: patent US6355811B1, “Polyoxypropylenepolyethylene vitamin E and preparation thereof” (priority 1998, dated 2002)

Legend:
[1] = Anti-oxidation activity: peroxide value of linoleic acid with added sample; conditions: sample 0.5% in linoleic acid, stored at 40° C.
Experimental: An examination was made of the anti-oxidation activity of the polyoxypropylenepolyoxyethylene vitamin E, using linoleic acid. The linoleic acid used was a reagent purchased from Sigma, U.S.A., comprising linoleic acid 75% and linolenic acid 12.5%.
The polyoxypropylenepolyoxyethylene vitamin E(1) prepared in Example I was added at an amount of 0.5% in the linoleic acid while vitamin E, vitamin E acetate, polyoxyethylene (12EO) vitamin E, polyoxyethylene (20EO) sorbitan monostearate (TWEEN-60), and polyoxyethylene (12EO) nonylphenylether (Igepal-CO880) were also used as references. These samples were stored in an incubator maintained at 40° C. At two days and ten days after the incubation, a peroxide value was determined for each sample. In detail, in a 250 ml Erlenmeyer flask was placed 1.0 g of each of the samples, and 10 ml of chloroform were added to dissolve the sample, after which 15 ml of glacial acetic acid and 1 ml of saturated potassium iodide solution were added and a stopper was put in the flask. After being vigorously shaken, the flask was allowed to stand in a dark place for 5 min. Thereafter, the flask was added with 75 ml of distilled water and vigorously shaken. Free iodine was titrated with a 0.01 N sodium thiosulfate solution, using a starch solution as an indicator. The point at which the solution became colorless was regarded as the end point. The peroxide value was calculated as follows: [formula]
S: Amount of 0.01 N sodium thiosulfate solution consumed by sample (ml)
B: Amount of 0.01 N sodium thiosulfate solution consumed in blank test tube (ml)
F: Factor of 0.01 N sodium thiosulfate solution

[2] = Foaming ability and foam stability, dynamic foam test; format: physicochemical; conditions: 20° C.; for Foam Stability: 0.1% solution in water, foam at three minutes after stirring; for Foaming Ability: 0.1% solution in water, 1,000 rpm, 1 min
Experimental: The foaming ability and foam stability were determined according to a dynamic foam test. First, in a 2 L scaled cylinder with an inner diameter of 10 cm were charged 40 ml of a 0.1% solution of each sample in water and the solution was stirred at 1,000 rpm 20° C. for 1 min with an agimixer. The height of the foam layer thus formed was regarded as foaming ability while the ratio of the volume of the foam layer formed immediately after the stirring to the same maintained at three minutes after the stirring, was denoted as foam stability.

[3] = Surface tension by the du Nuoy method; format: physicochemical; conditions: 0.1% aqueous solution, 20° C.
Experimental: At 20° C., 0.1% solutions of samples in water were measured for surface tension according to the du Nuoy method with the aid of a surface tension balance manufactured by Fisher Scientific.

rabbits = test: Primary eye irritation test according to Draize; format: in vivo
Experimental: In order to evaluate the safety of the novel polyoxypropylenepolyoxyethylene vitamin E, a primary eye irritation test was conducted on rabbits as taught by Draize. The polyoxypropylenepolyoxyethylene vitamin E (5) prepared in Example V, polyoxyethylene (12EO) nonylphenylether and polyoxyethylene (20EO) sorbitan monostearate each was diluted with a 10% aqueous glycerine solution to give a 10% sample solution. This test sample was dropped onto one eye of each of 6 rabbits weighing 2-3 kg while the other eye was used as a control. 24 hours later, the average scores were recorded according to the Draize scoring for ocular lesions. If lesions were present, the time was extended; otherwise, observation was ceased.

human body = test: Patch test, Finn Chamber method; format: in vivo; conditions: human brachium, ICDRG standard
Experimental: In order to confirm non-toxicity of the polyoxypropylenepolyoxyethylene vitamin E according to the present invention, a patch test was conducted on the human body according to the Finn Chamber method. The subjects of this test were all females 15-35 years old. A sample material was dropped onto the brachium of each of the subjects and a dermicel tape was bonded thereto. The skin irritations were evaluated as a response rate (%) according to an International Contact Dermatitis Research Group (ICDRG) standard after 24 or 48 hour.

| Molecule | Foam Stability [2] [%] | Foaming Ability [2] [cc] | Surface Tension [3] [dyne/cm] | Response Rate, 24 h (human body) [%] | Response Rate, 48 h (human body) [%] | Peroxide Values After 2 days [1] | Peroxide Values After 10 days [1] | Eye irritation, Avg. Values (Draize scoring for ocular lesions) (rabbits; rabbit, in vivo) | Eye irritation, Avg. Values (Draize scoring for ocular lesions) (rabbits; 10% sample solution in 10% aqueous glycerine, rabbit eye, 24 hours) |
| --- | --- | --- | --- | --- | --- | --- | --- | --- | --- |
| vitamin E | – | – | – | – | – | 21.6 | 58.9 | – | – |
| polyoxyethylene (12EO) nonylphenylether [12EO nonylphenylether] | – | – | – | 2.4 | 2.0 | 28.9 | 178.5 | 0.35 | – |
| CC(=O)Oc1c(C)c(C)c2c(c1C)CCC(C)(CCC[C@H](C)CCC[C@H](C)CCCC(C)C)O2 (stereo partly shown) [Acetate of vitamin E, vitamin E acetate] | – | – | – | – | – | 27.2 | 123.3 | – | – |

The next lines start with results.

| Foam Stability [2] [%] | Foaming Ability [2] [cc] | Surface Tension [3] [dyne/cm] | Response Rate, 24 h (human body) [%] | Response Rate, 48 h (human body) [%] | Molecule | Peroxide Values After 2 days [1] | Peroxide Values After 10 days [1] | Eye irritation, Avg. Values (Draize scoring for ocular lesions) (rabbits; rabbit, in vivo) | Eye irritation, Avg. Values (Draize scoring for ocular lesions) (rabbits; 10% sample solution in 10% aqueous glycerine, rabbit eye, 24 hours) |
| --- | --- | --- | --- | --- | --- | --- | --- | --- | --- |
| 89.6 | 246 | 38.4 | – | – | polyoxyethylene (24EO) cholesterol [24 EO Cholesterol] | – | – | – | – |
| – | – | – | 0.6 | 0.0 | polyoxyethylene (20EO) sorbitan monostearate [20EO sorbitan mono stearate] | 25.0 | 126.6 | – | 0.16 |
| 46.5 | 125 | 56.3 | 1.6 | 0.8 | polyoxyethylene (12EO) vitamin E [12EO vitamin E] | 26.0 | 124.6 | 0.19 | – |
